Assays:
[1] = oral glucose tolerance test in overnight fasted rats; assay type: in vivo, male Sprague Dawley rats (Crl:CD(SD)); details: single oral dose 30 min before oral glucose load 2 g/kg; Cpd. A 1 mg/kg, dapagliflozin 0.3 mg/kg, combination at same doses; non-diabetic rats, n=5/group; blood glucose up to 120 min
Experimental: The following example show the beneficial effect on glycemic control of the combination of a SGLT2 inhibitor and a DPP IV inhibitor according to the present invention as compared to the respective monotherapies. All experimental protocols concerning the use of laboratory animals are reviewed by a federal Ethics Committee and approved by governmental authorities. According to this example an oral glucose tolerance test is performed in overnight fasted male Sprague Dawley rats (Crl:CD(SD)) with a body weight of about 200 g. A pre-dose blood sample is obtained by tail bleed. Blood glucose is measured with a glucometer, and the animals are randomized for blood glucose (n=5/group). Subsequently, the groups receive a single oral administration of either vehicle alone (0.5% aqueous hydroxyethylcellulose containing 0.015% Polysorbat 80) or vehicle containing either the SGLT2 inhibitor or the DPPIV inhibitor or the combination of the SGLT2 inhibitor with the DPPIV inhibitor. The animals receive an oral glucose load (2 g/kg) 30 min after compound administration. Blood glucose is measured in tail blood 30 min, 60 min, 90 min, and 120 min after the glucose challenge. Glucose excursion is quantified by calculating the reactive glucose AUC. The data are presented as mean±S.E.M. Statistical comparisons are conducted by Student's t test.
“Cpd. […]

[2] = metformin on its own, in the diabetic; cited from earlier work

Structure (SMILES) | reduction of glucose excursion (reactive glucose AUC) [1] | average improvement in the HbA1c value [2]
CC#CCn1c(N2CCC[C@@H](N)C2)nc2c1c(=O)n(Cc1nc(C)c3ccccc3n1)c(=O)n2C [Cpd. A, 1-[(4-methyl-quinazolin-2-yl)methyl]-3-methyl-7-(2-butyn-1-yl)-8-(3-(R)-amino-piperidin-1-yl)-xanthine] | 25% | 
CCOc1ccc(Cc2cc([C@@H]3O[C@H](CO)[C@@H](O)[C@H](O)[C@H]3O)ccc2Cl)cc1 [dapagliflozin, Dapagliflozin] | 31% | 
CN(C)C(=N)N=C(N)N [metformin] |  | 1.0-1.5%

Reference: US20110098240A1, “PHARMACEUTICAL COMPOSITION COMPRISING A SGLT2 INHIBITOR IN COMBINATION WITH A DPP-IV INHIBITOR” (BOEHRINGER INGELHEIM INTERNATIONAL GMBH, priority 2007, published 2011)
